# From ChEMBL document CHEMBL3244111, “Nitrones. 7. alpha-Quinoxalinyl-N-substituted nitrone 1,4-dioxides” (J Med Chem, 1977)
# Activity calls are given as the source filed them. The calls are words filed in the database; no cut-off is given here.
# Legend:
# Salmonella typhimurium = assay: In vivo antibacterial activity against Salmonella typhimurium infected in CF1 mouse assessed as protection against bacterial infection administered as two doses; format: functional, Salmonella enterica subsp. enterica serovar Typhimurium; details: Salmonella enterica
# Salmonella [1] = assay: In vivo antibacterial activity against Salmonella typhosa infected in CF1 mouse assessed as protection against bacterial infection administered as two doses; format: functional
# Streptococcus pneumoniae = assay: In vivo antibacterial activity against Diplococcus pneumoniae I infected in CF1 mouse assessed as protection against bacterial infection administered as two doses; format: functional
# Listeria monocytogenes = assay: In vivo antibacterial activity against Listeria monocytogenes infected in CF1 mouse assessed as protection against bacterial infection administered as two doses; format: functional
# Staphylococcus aureus = assay: In vivo antibacterial activity against Staphylococcus aureus infected in CF1 mouse assessed as protection against bacterial infection administered as two doses; format: functional
# Streptococcus pyogenes = assay: In vivo antibacterial activity against Streptococcus pyogenes infected in CF1 mouse assessed as protection against bacterial infection administered as two doses; format: functional
# [2] = Acute toxicity in po dosed mouse administered as single dose; format: organism-based; details: in vivo
# [3] = Acute toxicity in sc dosed mouse administered as single dose; format: organism-based; details: in vivo
# Histomonas meleagridis = assay: In vivo antiprotozoal activity against Histomonas meleagridis infected in turkey; format: functional, organism-based
# Shigella flexneri = assay: In vivo antibacterial activity against Shigella paradysenteriae infected in CF1 mouse assessed as protection against bacterial infection administered as two doses; format: functional
# Escherichia coli = assay: In vivo antibacterial activity against Escherichia coli infected in CF1 mouse assessed as protection against bacterial infection administered as two doses; format: functional
# Klebsiella pneumoniae = assay: In vivo antibacterial activity against Klebsiella pneumoniae infected in CF1 mouse assessed as protection against bacterial infection administered as two doses; format: functional
# Pasteurella multocida = assay: In vivo antibacterial activity against Pasteurella multocida infected in CF1 mouse assessed as protection against bacterial infection administered as two doses; format: functional
# Proteus mirabilis = assay: In vivo antibacterial activity against Proteus mirabilis infected in CF1 mouse assessed as protection against bacterial infection administered as two doses; format: functional
# Pseudomonas aeruginosa = assay: In vivo antibacterial activity against Pseudomonas aeruginosa infected in sc dosed CF1 mouse assessed as protection against bacterial infection administered as two doses; format: functional
# Salmonella enteritidis = assay: In vivo antibacterial activity against Salmonella enteriditis infected in CF1 mouse assessed as protection against bacterial infection administered as two doses; format: functional, Salmonella enterica subsp. enterica serovar Enteritidis; details: Salmonella enterica
# Salmonella [4] = assay: In vivo antibacterial activity against Salmonella schottmuelleri infected in CF1 mouse assessed as protection against bacterial infection administered as two doses; format: functional
# Shigella dysenteriae = assay: In vivo antibacterial activity against Shigella dysenteriae infected in CF1 mouse assessed as protection against bacterial infection administered as two doses; format: functional
# [5] = Acute toxicity in ip dosed mouse administered as single dose; format: organism-based; details: in vivo
# Proteus vulgaris = assay: In vivo antibacterial activity against Proteus vulgaris infected in CF1 mouse assessed as protection against bacterial infection administered as two doses; format: functional
Compound,ED50 (Salmonella typhimurium) [mg/kg],ED50 (Salmonella [1]) [mg/kg],ED50 (Streptococcus pneumoniae) [mg/kg],ED50 (Listeria monocytogenes) [mg/kg],ED50 (Staphylococcus aureus) [mg/kg],ED50 (Streptococcus pyogenes) [mg/kg],LD50 [2] [mg/kg],LD50 [3] [mg/kg],Activity (Histomonas meleagridis),ED50 (Shigella flexneri) [mg/kg],ED50 (Escherichia coli) [mg/kg],ED50 (Klebsiella pneumoniae) [mg/kg],ED50 (Pasteurella multocida) [mg/kg],ED50 (Proteus mirabilis) [mg/kg],ED50 (Pseudomonas aeruginosa) [mg/kg],ED50 (Salmonella enteritidis) [mg/kg],ED50 (Salmonella [4]) [mg/kg],ED50 (Shigella dysenteriae) [mg/kg],LD50 [5] [mg/kg],ED50 (Proteus vulgaris) [mg/kg]
O=[N+]([O-])c1ccc(/C=[N+](/[O-])CCO)o1 [NIFURATRONE],30,31,> 100,> 100,26,47,518,417,inactive,46,27,39,< 50,53,> 100,47,8,,,
Cc1c(/C=[N+](\C)[O-])[n+]([O-])c2ccccc2[n+]1[O-],16,10,32,> 100,74,35,> 1000,596,inactive,13,10,6,7,18,> 250,2,1.5,62,596,35
O=C(N[C@H](CO)[C@H](O)c1ccc([N+](=O)[O-])cc1)C(Cl)Cl [CHLORAMPHENICOL],16,24,,> 100,27,27,2640,,inactive,,41,20,11,52,,29,9,61,1320,> 100
